Source: US9340590B2 (priority 2011, dated 2016)
Read-outs that look alike come from different tables or passages of the source. Positions of bridges follow the written chain, without caps; N, C: chain ends. Residues, ends and D or L forms follow the SMILES beside them.

Experiments:
Test in all cases: cell-based
hNav1.3 = hNav1.3 (Homo sapiens, UniProt Q9NY46); settings: IonWorks Quattro, read-out: IWQ Use Nav1.3
hNav1.5 = hNav1.5 (Homo sapiens, UniProt Q14524); settings: IonWorks Quattro, read-out: IWQ Use Nav1.5
hNav1.7 = hNav1.7 (Homo sapiens, UniProt Q15858); format: cell-based
hNav1.7, sequence (Q15858 whole entry, looked up): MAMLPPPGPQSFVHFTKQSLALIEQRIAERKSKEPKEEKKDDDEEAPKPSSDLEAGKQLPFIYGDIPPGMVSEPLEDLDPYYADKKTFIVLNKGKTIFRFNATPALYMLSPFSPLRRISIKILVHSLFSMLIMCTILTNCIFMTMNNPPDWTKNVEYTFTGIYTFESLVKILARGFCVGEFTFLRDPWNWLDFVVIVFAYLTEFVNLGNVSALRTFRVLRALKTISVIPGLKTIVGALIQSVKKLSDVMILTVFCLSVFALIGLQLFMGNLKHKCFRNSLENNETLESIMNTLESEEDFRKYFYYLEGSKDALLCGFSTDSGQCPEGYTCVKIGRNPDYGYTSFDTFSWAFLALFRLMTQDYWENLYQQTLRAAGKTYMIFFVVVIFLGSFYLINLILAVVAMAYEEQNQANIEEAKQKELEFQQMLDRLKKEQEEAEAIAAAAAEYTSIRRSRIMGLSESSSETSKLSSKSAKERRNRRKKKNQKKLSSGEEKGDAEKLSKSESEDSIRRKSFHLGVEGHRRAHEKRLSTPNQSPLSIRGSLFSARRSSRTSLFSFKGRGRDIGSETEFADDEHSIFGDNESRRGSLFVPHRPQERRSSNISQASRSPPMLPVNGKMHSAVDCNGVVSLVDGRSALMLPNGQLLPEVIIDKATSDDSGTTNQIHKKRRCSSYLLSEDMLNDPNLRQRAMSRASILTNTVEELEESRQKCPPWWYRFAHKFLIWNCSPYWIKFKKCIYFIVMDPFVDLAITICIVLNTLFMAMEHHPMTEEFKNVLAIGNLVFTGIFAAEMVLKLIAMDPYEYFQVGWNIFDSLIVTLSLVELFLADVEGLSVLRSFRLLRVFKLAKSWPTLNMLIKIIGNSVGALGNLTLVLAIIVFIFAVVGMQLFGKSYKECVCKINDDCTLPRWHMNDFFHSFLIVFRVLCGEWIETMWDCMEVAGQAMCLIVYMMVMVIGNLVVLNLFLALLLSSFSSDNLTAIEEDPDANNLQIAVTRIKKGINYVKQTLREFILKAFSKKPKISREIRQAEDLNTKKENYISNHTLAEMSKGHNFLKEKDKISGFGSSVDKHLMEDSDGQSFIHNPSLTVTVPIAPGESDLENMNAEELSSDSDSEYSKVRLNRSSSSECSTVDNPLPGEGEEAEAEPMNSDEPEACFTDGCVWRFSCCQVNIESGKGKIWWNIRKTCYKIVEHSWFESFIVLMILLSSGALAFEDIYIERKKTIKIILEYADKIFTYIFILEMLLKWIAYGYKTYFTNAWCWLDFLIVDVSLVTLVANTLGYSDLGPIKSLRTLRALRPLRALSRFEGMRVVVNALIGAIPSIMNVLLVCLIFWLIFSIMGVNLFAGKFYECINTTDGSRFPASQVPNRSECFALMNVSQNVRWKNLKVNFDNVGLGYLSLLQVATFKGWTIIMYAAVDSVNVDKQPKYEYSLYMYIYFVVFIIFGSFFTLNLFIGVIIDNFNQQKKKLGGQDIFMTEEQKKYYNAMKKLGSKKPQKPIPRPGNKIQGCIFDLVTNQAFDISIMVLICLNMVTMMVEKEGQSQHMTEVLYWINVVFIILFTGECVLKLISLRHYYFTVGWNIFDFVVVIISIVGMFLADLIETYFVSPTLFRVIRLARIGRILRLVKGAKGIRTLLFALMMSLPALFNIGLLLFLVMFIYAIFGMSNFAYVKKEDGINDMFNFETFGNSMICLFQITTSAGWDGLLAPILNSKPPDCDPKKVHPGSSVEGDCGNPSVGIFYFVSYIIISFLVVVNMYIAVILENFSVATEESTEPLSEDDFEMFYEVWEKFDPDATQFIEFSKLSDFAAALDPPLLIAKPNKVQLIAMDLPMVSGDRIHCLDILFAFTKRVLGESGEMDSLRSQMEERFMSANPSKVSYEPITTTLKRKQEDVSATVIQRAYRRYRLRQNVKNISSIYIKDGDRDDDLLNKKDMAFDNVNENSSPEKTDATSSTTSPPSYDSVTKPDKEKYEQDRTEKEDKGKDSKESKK

[1] = IonWorks Quattro, Use, read-out: IWQ Use Nav1.7

hNav1.3, sequence (Q9NY46 whole entry, looked up): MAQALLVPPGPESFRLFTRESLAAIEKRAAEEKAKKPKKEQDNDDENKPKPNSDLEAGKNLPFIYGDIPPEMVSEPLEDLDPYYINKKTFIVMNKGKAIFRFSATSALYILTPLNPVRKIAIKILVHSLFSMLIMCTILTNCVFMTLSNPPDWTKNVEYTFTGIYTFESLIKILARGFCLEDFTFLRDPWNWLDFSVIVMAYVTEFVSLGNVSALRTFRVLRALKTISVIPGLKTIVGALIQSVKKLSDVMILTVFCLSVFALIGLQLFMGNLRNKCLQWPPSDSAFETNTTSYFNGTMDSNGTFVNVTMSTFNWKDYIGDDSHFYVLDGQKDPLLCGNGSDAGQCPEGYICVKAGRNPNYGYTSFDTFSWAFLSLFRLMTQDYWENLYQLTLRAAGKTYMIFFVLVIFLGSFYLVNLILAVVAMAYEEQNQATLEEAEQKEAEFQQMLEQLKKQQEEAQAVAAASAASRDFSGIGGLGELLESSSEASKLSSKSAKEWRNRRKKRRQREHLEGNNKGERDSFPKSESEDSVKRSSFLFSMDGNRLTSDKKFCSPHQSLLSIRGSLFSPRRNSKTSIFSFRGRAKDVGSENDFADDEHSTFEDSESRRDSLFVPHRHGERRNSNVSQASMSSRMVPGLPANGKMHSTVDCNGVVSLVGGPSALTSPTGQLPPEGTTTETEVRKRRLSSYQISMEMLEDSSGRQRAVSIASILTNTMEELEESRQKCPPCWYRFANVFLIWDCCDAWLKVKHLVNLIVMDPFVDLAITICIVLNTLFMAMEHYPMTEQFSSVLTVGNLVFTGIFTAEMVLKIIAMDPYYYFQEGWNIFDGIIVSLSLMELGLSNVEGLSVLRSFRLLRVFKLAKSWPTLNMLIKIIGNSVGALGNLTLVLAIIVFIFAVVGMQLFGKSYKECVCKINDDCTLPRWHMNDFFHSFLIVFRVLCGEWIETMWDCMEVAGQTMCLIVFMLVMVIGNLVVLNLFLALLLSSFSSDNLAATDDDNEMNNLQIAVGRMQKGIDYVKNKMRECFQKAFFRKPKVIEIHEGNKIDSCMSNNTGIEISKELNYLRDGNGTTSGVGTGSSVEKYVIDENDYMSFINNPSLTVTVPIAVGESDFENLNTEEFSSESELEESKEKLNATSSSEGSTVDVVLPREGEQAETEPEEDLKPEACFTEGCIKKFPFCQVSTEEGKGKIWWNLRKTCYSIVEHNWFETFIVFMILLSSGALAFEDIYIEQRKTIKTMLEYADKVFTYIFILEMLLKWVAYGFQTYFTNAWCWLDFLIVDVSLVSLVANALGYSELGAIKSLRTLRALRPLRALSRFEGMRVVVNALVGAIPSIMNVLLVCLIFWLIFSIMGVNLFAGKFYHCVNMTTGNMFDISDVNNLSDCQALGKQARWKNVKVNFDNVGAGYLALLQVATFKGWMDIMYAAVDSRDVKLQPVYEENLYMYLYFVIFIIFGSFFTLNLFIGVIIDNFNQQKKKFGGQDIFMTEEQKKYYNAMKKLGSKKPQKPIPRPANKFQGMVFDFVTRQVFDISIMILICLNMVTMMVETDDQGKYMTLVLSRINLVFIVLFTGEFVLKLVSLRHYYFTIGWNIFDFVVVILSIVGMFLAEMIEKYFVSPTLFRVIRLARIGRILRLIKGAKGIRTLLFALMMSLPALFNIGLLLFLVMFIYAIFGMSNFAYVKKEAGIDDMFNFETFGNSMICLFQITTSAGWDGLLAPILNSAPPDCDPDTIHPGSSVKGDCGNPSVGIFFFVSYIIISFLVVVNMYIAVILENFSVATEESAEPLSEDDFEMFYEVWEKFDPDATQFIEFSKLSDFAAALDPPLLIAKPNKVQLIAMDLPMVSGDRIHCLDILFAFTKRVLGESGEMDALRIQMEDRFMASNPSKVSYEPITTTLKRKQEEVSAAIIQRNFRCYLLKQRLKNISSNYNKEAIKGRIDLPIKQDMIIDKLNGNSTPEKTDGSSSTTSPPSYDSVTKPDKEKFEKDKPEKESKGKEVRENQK

## CC[C@H](C)[C@@H]1NC(=O)[C@@H]2CSSC[C@@H]3NC(=O)[C@H](C(C)C)NC(=O)[C@H](CC(C)C)NC(=O)[C@H](CC(N)=O)NC(=O)[C@@H]4CCCN4C(=O)[C@H](CCCNC(=N)N)NC(=O)[C@H](CSSC[C@H](NC(=O)[C@@H](N)CC(=O)O)C(=O)N[C@@H](CC(C)C)C(=O)NCC(=O)N[C@@H](Cc4ccccc4)C(=O)N[C@@H](CCSC)C(=O)N[C@@H](CCCNC(=N)N)C(=O)N[C@@H](CCCCN)C(=O)N2)NC(=O)[C@H](CSSC[C@@H](C(=O)N[C@@H](CCCCN)C(=O)N[C@@H](Cc2ccc(O)cc2)C(=O)N[C@H](C(=O)N[C@@H](Cc2c[nH]c4ccccc24)C(N)=O)C(C)C)NC(=O)[C@H](Cc2c[nH]c4ccccc24)NC(=O)[C@H](CCCCN)NC(=O)[C@H](Cc2c[nH]cn2)NC(=O)[C@H]([C@@H](C)O)NC(=O)[C@H](CCCNC(=N)N)NC(=O)[C@H](CO)NC3=O)NC(=O)[C@H](CCCCN)NC(=O)[C@H](CC(=O)O)NC(=O)[C@H](CC(N)=O)NC(=O)[C@H](CC(=O)O)NC(=O)[C@@H]2CCCN2C1=O [compound 86] (H-DCLGFMRKCIPDNDKCCRPNLVCSRTHKWCKYVW-NH2; disulfide 2-17, 9-23, 16-30)
hNav1.3; use-dependent, […]
  IC50: 180 nM
hNav1.5; use-dependent, […]
  IC50: 10000 nM
hNav1.7; IonWorks Quattro, use-dependent, […], read-out: IWQ Use Nav1.7
  IC50: 260 nM

## CC[C@H](C)[C@@H]1NC(=O)[C@@H]2CSSC[C@@H]3NC(=O)[C@H](C(C)C)NC(=O)[C@H](CC(C)C)NC(=O)[C@H](CC(N)=O)NC(=O)[C@@H]4CCCN4C(=O)[C@H](CCCNC(=N)N)NC(=O)[C@H](CSSC[C@H](NC(=O)[C@@H](N)CC(=O)O)C(=O)N[C@@H](CC(C)C)C(=O)NCC(=O)N[C@@H](Cc4ccccc4)C(=O)N[C@@H](CCSC)C(=O)N[C@@H](CCCNC(=N)N)C(=O)N[C@@H](CCCCN)C(=O)N2)NC(=O)[C@H](CSSC[C@@H](C(=O)N[C@@H](CCCCN)C(=O)N[C@@H](Cc2ccc(O)cc2)C(=O)N[C@H](C(=O)N[C@@H](Cc2ccccc2)C(=O)N[C@@H](Cc2c[nH]c4ccccc24)C(N)=O)C(C)C)NC(=O)[C@H](Cc2c[nH]c4ccccc24)NC(=O)[C@H](CCCCN)NC(=O)[C@H](Cc2c[nH]cn2)NC(=O)[C@H]([C@@H](C)O)NC(=O)[C@H](CCCNC(=N)N)NC(=O)[C@H](CO)NC3=O)NC(=O)[C@H](CCCCN)NC(=O)[C@H](CC(=O)O)NC(=O)[C@H](CC(N)=O)NC(=O)[C@H](CC(=O)O)NC(=O)[C@@H]2CCCN2C1=O [compound 87]
hNav1.3; use-dependent, […]
  IC50: 70 nM
hNav1.5; use-dependent, […]
  IC50: 7870 nM
hNav1.7; IonWorks Quattro, use-dependent, […], read-out: IWQ Use Nav1.7 (μm)
  IC50: 50 nM

## CSCC[C@@H]1NC(=O)[C@H](Cc2ccccc2)NC(=O)CNC(=O)[C@H](CC(C)C)NC(=O)[C@@H](NC(=O)[C@@H](N)CC(=O)O)CSSC[C@@H]2NC(=O)[C@@H]3CSSC[C@@H](C(=O)N[C@@H](CCCCN)C(=O)N[C@@H](Cc4ccc(O)cc4)C(=O)N[C@H](C(=O)N[C@@H](Cc4ccccc4)C(N)=O)C(C)C)NC(=O)[C@H](Cc4c[nH]c5ccccc45)NC(=O)[C@H](CCCCN)NC(=O)[C@H](Cc4cnc[nH]4)NC(=O)[C@H]([C@@H](C)O)NC(=O)[C@H](CCCNC(=N)N)NC(=O)[C@H](CO)NC(=O)[C@H](CSSC[C@H](NC(=O)[C@H](CCCCN)NC(=O)[C@H](CCCNC(=N)N)NC1=O)C(=O)N[C@@H](CC(N)=O)C(=O)N1CCC[C@H]1C(=O)N[C@@H](CC(=O)O)C(=O)N[C@@H](CC(N)=O)C(=O)N[C@@H](CC(=O)O)C(=O)N[C@@H](CCCCN)C(=O)N3)NC(=O)[C@H](C(C)C)NC(=O)[C@H](CC(C)C)NC(=O)[C@H](CC(N)=O)NC(=O)[C@@H]1CCCN1C(=O)[C@H](CCCNC(=N)N)NC2=O [compound 90] (H-DCLGFMRKCNPDNDKCCRPNLVCSRTHKWCKYVF-NH2; disulfide 2-17, 9-23, 16-30)
hNav1.3; Use
  IC50: 190 nM
hNav1.5; Use
  IC50: 14100 nM
hNav1.7
  IC50: 490 nM

## CC[C@H](C)[C@@H]1NC(=O)[C@@H]2CSSC[C@@H]3NC(=O)[C@H](C(C)C)NC(=O)[C@H](CC(C)C)NC(=O)[C@H](CC(N)=O)NC(=O)[C@@H]4CCCN4C(=O)[C@H](CCCNC(=N)N)NC(=O)[C@H](CSSC[C@H](NC(=O)[C@@H](N)CC(=O)O)C(=O)N[C@@H](CC(C)C)C(=O)NCC(=O)N[C@@H](Cc4ccccc4)C(=O)N[C@@H](CCSC)C(=O)N[C@@H](CCCNC(=N)N)C(=O)N[C@@H](CCCCN)C(=O)N2)NC(=O)[C@H](CSSC[C@@H](C(=O)N[C@@H](CCCCN)C(=O)N[C@@H](Cc2ccc(O)cc2)C(=O)N[C@H](C(=O)N[C@@H](Cc2ccccc2)C(N)=O)C(C)C)NC(=O)[C@H](Cc2c[nH]c4ccccc24)NC(=O)[C@H](CCCCN)NC(=O)[C@H](Cc2c[nH]cn2)NC(=O)[C@H]([C@@H](C)O)NC(=O)[C@H](CCCNC(=N)N)NC(=O)[C@H](CO)NC3=O)NC(=O)[C@H](CCCCN)NC(=O)[C@H](CC(=O)O)NC(=O)[C@H](CC(N)=O)NC(=O)[C@H](CO)NC(=O)[C@@H]2CCCN2C1=O [compound 91] (H-DCLGFMRKCIPSNDKCCRPNLVCSRTHKWCKYVF-NH2; disulfide 2-17, 9-23, 16-30)
hNav1.3; Use
  IC50: 190 nM
hNav1.5; Use
  IC50: 9580 nM
hNav1.7; [1]
  IC50: 80 nM

## CC[C@H](C)[C@@H]1NC(=O)[C@@H]2CSSC[C@@H]3NC(=O)[C@H](C(C)C)NC(=O)[C@H](CC(C)C)NC(=O)[C@H](CC(N)=O)NC(=O)[C@@H]4CCCN4C(=O)[C@H](CCCNC(=N)N)NC(=O)[C@H](CSSC[C@H](NC(=O)[C@@H](N)CC(=O)O)C(=O)N[C@@H](CC(C)C)C(=O)NCC(=O)N[C@@H](Cc4ccccc4)C(=O)N[C@@H](CCSC)C(=O)N[C@@H](CCCNC(=N)N)C(=O)N[C@@H](CCCCN)C(=O)N2)NC(=O)[C@H](CSSC[C@@H](C(=O)N[C@@H](CCCCN)C(=O)N[C@@H](Cc2ccc(O)cc2)C(=O)N[C@H](C(=O)N[C@@H](Cc2ccccc2)C(N)=O)C(C)C)NC(=O)[C@H](Cc2c[nH]c4ccccc24)NC(=O)[C@H](CCCCN)NC(=O)[C@H](Cc2c[nH]cn2)NC(=O)[C@H]([C@@H](C)O)NC(=O)[C@H](CCCNC(=N)N)NC(=O)[C@H](CO)NC3=O)NC(=O)[C@H](CCC(N)=O)NC(=O)[C@H](CC(=O)O)NC(=O)[C@H](CC(N)=O)NC(=O)[C@H](CC(=O)O)NC(=O)[C@@H]2CCCN2C1=O [compound 92] (H-DCLGFMRKCIPDNDQCCRPNLVCSRTHKWCKYVF-NH2; disulfide 2-17, 9-23, 16-30)
hNav1.3; Use
  IC50: 120 nM
hNav1.5; Use
  IC50: 7600 nM
hNav1.7; [1]
  IC50: 130 nM

## CC[C@H](C)[C@@H]1NC(=O)[C@@H]2CSSC[C@@H]3NC(=O)[C@H](C(C)C)NC(=O)[C@H](CC(C)C)NC(=O)[C@H](CC(N)=O)NC(=O)[C@@H]4CCCN4C(=O)[C@H](CCCNC(=N)N)NC(=O)[C@H](CSSC[C@H](NC(=O)[C@@H](N)CC(=O)O)C(=O)N[C@@H](CC(C)C)C(=O)NCC(=O)N[C@@H](Cc4ccccc4)C(=O)N[C@@H](CCSC)C(=O)N[C@@H](CCCNC(=N)N)C(=O)N[C@@H](CCCCN)C(=O)N2)NC(=O)[C@H](CSSC[C@@H](C(=O)N[C@@H](CCCCN)C(=O)N[C@@H](Cc2ccc(O)cc2)C(=O)N[C@H](C(=O)N[C@@H](Cc2ccccc2)C(N)=O)C(C)C)NC(=O)[C@H](Cc2c[nH]c4ccccc24)NC(=O)[C@H](CCCCN)NC(=O)[C@H]([C@@H](C)O)NC(=O)[C@H](CCCCN)NC(=O)[C@H](CCCNC(=N)N)NC(=O)[C@H](CO)NC3=O)NC(=O)[C@H](CCCCN)NC(=O)[C@H](CC(=O)O)NC(=O)[C@H](CC(N)=O)NC(=O)[C@H](CC(=O)O)NC(=O)[C@@H]2CCCN2C1=O [compound 94] (H-DCLGFMRKCIPDNDKCCRPNLVCSRKTKWCKYVF-NH2; disulfide 2-17, 9-23, 16-30)
hNav1.3; Table 22, use, […]
  IC50: 50 nM
hNav1.5; Table 22, use, […]
  IC50: 9290 nM
hNav1.7; Table 22, IonWorks Quattro, use, […], read-out: IWQ Use Nav1.7
  IC50: 100 nM

## CC[C@H](C)[C@@H]1NC(=O)[C@@H]2CSSC[C@@H]3NC(=O)[C@H](C(C)C)NC(=O)[C@H](CC(C)C)NC(=O)[C@H](CC(N)=O)NC(=O)[C@@H]4CCCN4C(=O)[C@H](CCCNC(=N)N)NC(=O)[C@H](CSSC[C@H](NC(=O)[C@@H](N)CC(=O)O)C(=O)N[C@@H](CC(C)C)C(=O)NCC(=O)N[C@@H](Cc4ccccc4)C(=O)N[C@@H](CCSC)C(=O)N[C@@H](CCCNC(=N)N)C(=O)N[C@@H](CCCCN)C(=O)N2)NC(=O)[C@H](CSSC[C@@H](C(=O)N[C@@H](CCCCN)C(=O)N[C@@H](Cc2ccc(O)cc2)C(=O)N[C@@H](CCC(N)=O)C(=O)N[C@@H](Cc2ccccc2)C(N)=O)NC(=O)[C@H](Cc2c[nH]c4ccccc24)NC(=O)[C@H](CCCCN)NC(=O)[C@H](Cc2c[nH]cn2)NC(=O)[C@H]([C@@H](C)O)NC(=O)[C@H](CCCNC(=N)N)NC(=O)[C@H](CO)NC3=O)NC(=O)[C@H](CCCCN)NC(=O)[C@H](CC(=O)O)NC(=O)[C@H](CC(N)=O)NC(=O)[C@H](CC(=O)O)NC(=O)[C@@H]2CCCN2C1=O [compound 95] (H-DCLGFMRKCIPDNDKCCRPNLVCSRTHKWCKYQF-NH2; disulfide 2-17, 9-23, 16-30)
hNav1.3; Table 26, use, […]
  IC50: 110 nM
hNav1.5; Table 26, use, […]
  IC50: 10600 nM
hNav1.7; Table 26, IonWorks Quattro, use, […], read-out: IWQ Use Nav1.7
  IC50: 120 nM
